Assay [1] concerns the target T1, p210 Bcr-Abl (Homo sapiens, UniProt P00519).
T1 construct: expressed in transfected cells; host or cells: murine myeloid progenitor cell line 32Dcl3 (32D-bcr/abl), from J. Griffin; the other entry of the earlier key: BCR (P11274, Breakpoint cluster region protein)
Put plainly: Test for activity against Bcr-Abl (Bcr-Abl phosphorylation ELISA in 32D-bcr/abl cells). It counts as cell-based. Particulars: expressed as a range within which individual IC50 measurements fall. The text has this:
Test for activity against Bcr-Abl. The murine myeloid progenitor cell line 32Dcl3 transfected with the p210 Bcr-Abl expression vector pGDp210Bcr/Abl (32D-bcr/abl) was obtained from J. Griffin (Dana Faber Cancer Institute, Boston, Mass., USA). The cells express the fusion Bcr-Abl protein with a constitutively active Abl kinase and proliferate growth factor independent. […] After thawing, the cells are used during maximally 10-12 passages for the experiments.
For cellular assays, compounds are dissolved in DMSO and diluted with complete medium to yield a starting concentration of 10 μM followed by preparation of serial 3-fold dilutions in complete medium. 200,000 32D-Bcr/Abl cells in 50 μL complete medium are seeded per well in 96 well round bottom tissue culture plates. 50 μL per well of serial 3-fold dilutions of the test compound are added to the cells in triplicates. Untreated cells are used as control. The compound is incubated together with the cells for 90 min at 37° C., 5% CO2, followed by centrifugation of the tissue culture plates at 1300 rpm (Beckman GPR centrifuge) and removal of the supernatants by careful aspiration taking care not to remove any of the pelleted cells. The cell pellets are lysed by addition of 150 μL lysis buffer (50 mM Tris/HCl, pH 7.4, 150 mM sodium chloride, 5 mM EDTA, 1 mM EGTA, 1% NP-40, 2 mM sodium ortho-vanadate, 1 mM PMSF, 50 μg/mL aprotinin and 80 μg/mL leupeptin) and either used immediately for the ELISA or stored frozen in the plates at −20° C. until usage.
After washing 3 times with 200 μL/well PBS containing 0.05% Tween20 (PBST) and 0.5% TopBlock (Juro), residual protein binding sites are blocked with 200 μL/well PBST, 3% TopBlock for 4 h at room temperature followed by incubation with 50 μL lysates of untreated or compound-treated cells (20 μg total protein per well) for 3-4 h at 4° C. After 3 washings, 50 μL/well anti-phosphotyrosine Ab PY20(AP) labeled with alkaline phosphatase (Zymed) diluted to 0.2 μg/mL in blocking buffer is added and incubated over night (4° C.). For all incubation steps the plates are covered with plate sealers (Costar). Finally, the plates are washed another three times with washing buffer and once with deionized water before addition of 90 μL/well of the AP-substrate CDPStar RTU with Emerald II. The plates, now sealed with Packard TopSeal™-A plate sealers, are incubated for 45 min at room temperature in the dark and luminescence is quantified by measuring counts per second (CPS) with a Packard Top Count Microplate Scintillation Counter (Top Count).
The difference between the ELISA-readout (CPS) obtained for with the lysates of the untreated 32D-Bcr/Abl cells and the readout for the assay-background (all components, but without cell lysate) is calculated and taken as 100% reflecting the constitutively phosphorylated Bcr-Abl protein present in these cells. The activity of the compound on the Bcr-Abl kinase activity is expressed as percent reduction of the Bcr-Abl phosphorylation. The values for the IC50 and IC90 are determined from the dose response curves by graphical extrapolation.

For assay [2], the target named is T2, c-Abl protein tyrosine kinase (Homo sapiens, UniProt P00519).
T2 construct: The His-tagged kinase domain of c-Abl is cloned and expressed in the baculovirus/Sf9 system; His; made in house; host or cells: baculovirus/Sf9
T2 sequence (P00519 242-493 limits assumed): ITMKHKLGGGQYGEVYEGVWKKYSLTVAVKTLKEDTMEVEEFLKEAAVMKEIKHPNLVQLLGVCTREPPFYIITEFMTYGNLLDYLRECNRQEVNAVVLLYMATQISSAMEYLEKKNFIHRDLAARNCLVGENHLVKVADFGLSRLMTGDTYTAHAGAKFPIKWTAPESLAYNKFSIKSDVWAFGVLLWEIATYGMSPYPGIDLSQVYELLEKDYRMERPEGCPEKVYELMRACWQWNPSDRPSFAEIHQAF
Nature of the assay: Test for activity against c-Abl protein tyrosine kinase (filter binding assay). It counts as biochemical. The conditions noted are these: expressed as a range within which individual IC50 measurements fall. On the procedure: Test for activity against c-Abl protein tyrosine kinase. […] The assay contains: c-Abl kinase (50 ng), 20 mM Tris-HCl, pH 7.5, 10 mM MgCl2, 10 μM Na3VO4, 1 mM DTT and 0.06 μCi/assay [γ^33P]-ATP (5 μM ATP) using 30 μg/mL poly-Ala,Glu,Lys,Tyr-6:2:5:1 (Poly-AEKY, Sigma P1152) in the presence of 1% DMSO, total volume of 30 μL. Reactions are terminated by adding 10 μL of 250 mM EDTA, and 30 μL of the reaction mixture is transferred onto Immobilon-PVDF membrane (Millipore, Bedford, Mass., USA) previously soaked for 5 min with methanol, rinsed with water, then soaked for 5 min with 0.5% H3PO4 and mounted on vacuum manifold with disconnected vacuum source. After spotting all samples, vacuum is connected and each well rinsed with 200 μL 0.5% H3PO4. Membranes are removed and washed on a shaker with 0.5% H3PO4 (4 times) and once with ethanol. Membranes are counted after drying at ambient temperature, mounting in Packard TopCount 96-well frame, and addition of 10 μL/well of Microscint™ (Packard).

What is called IC50 is the concentration that inhibits the measured activity by half. Lower therefore signals greater potency.

T1 sequence (P00519 28-1130 limits assumed): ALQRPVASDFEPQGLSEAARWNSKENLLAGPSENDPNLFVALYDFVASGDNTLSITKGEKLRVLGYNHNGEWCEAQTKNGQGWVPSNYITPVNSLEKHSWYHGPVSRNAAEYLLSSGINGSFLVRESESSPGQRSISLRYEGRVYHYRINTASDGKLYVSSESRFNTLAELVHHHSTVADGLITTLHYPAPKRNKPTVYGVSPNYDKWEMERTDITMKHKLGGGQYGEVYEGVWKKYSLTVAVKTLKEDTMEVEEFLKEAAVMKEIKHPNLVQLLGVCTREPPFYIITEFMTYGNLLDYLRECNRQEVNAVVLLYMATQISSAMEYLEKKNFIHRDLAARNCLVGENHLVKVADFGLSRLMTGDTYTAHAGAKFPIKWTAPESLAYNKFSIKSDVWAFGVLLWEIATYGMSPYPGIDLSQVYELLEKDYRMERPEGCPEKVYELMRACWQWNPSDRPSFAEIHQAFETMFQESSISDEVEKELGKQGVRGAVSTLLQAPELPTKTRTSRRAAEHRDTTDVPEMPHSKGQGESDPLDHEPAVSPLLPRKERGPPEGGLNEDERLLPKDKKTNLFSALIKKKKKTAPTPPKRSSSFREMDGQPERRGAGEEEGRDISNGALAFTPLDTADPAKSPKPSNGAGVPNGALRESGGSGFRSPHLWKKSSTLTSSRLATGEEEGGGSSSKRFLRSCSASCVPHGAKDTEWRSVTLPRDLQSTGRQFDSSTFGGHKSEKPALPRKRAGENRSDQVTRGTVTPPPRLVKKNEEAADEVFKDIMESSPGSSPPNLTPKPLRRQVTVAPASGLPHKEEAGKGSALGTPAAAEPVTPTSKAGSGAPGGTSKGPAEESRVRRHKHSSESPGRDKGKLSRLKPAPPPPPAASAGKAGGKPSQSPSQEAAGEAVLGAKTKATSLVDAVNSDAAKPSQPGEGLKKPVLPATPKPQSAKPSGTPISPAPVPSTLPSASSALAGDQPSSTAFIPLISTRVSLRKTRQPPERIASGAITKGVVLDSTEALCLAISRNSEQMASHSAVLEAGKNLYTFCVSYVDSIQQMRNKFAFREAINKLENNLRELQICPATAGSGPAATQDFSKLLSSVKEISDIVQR

Consider `CCN(CC)c1ccc(C(=O)Nc2ccc(C)c(Nc3nccc(-c4cccnc4)n3)c2)cc1C(F)(F)F` [Example 1, 4-Diethylamino-N-[4-methyl-3-[[4-(3-pyridinyl)-2-pyrimidinyl]amino]phenyl]-3-(trifluoromethyl)-benzamide], for which the IC50 lay within 200 to 500 nM in assay [1] and 50 to 100 nM in assay [2].
The matching figures for `Cc1ccc(NC(=O)c2ccc(N3CCCC3)c(C(F)(F)F)c2)cc1Nc1nccc(-c2cccnc2)n1` [Example 2, N-[4-Methyl-3-[[4-(3-pyridinyl)-2-pyrimidinyl]amino]phenyl]-4-(1-pyrrolidinyl)-3-(trifluoromethyl)-benzamide]: 100 to 300 nM and 10 to 60 nM.
The corresponding values for `Cc1ccc(NC(=O)c2ccc(N3CCOCC3)c(C(F)(F)F)c2)cc1Nc1nccc(-c2cccnc2)n1` [Example 3, N-[4-Methyl-3-[[4-(3-pyridinyl)-2-pyrimidinyl]amino]phenyl]-4-(4-morpholinyl)-3 (trifluoromethyl)-benzamide] are 20 to 100 nM and 40 to 100 nM.
The matching figures for `Cc1ccc(NC(=O)c2ccc(N3CCCCC3)c(C(F)(F)F)c2)cc1Nc1nccc(-c2cccnc2)n1` [Example 4, N-[4-Methyl-3-[[4-(3-pyridinyl)-2-pyrimidinyl]amino]phenyl]-4-(1-piperidinyl)-3-(trifluoromethyl)-benzamide]: 80 to 200 nM and 60 to 110 nM.
Regarding `Cc1ccc(NC(=O)c2ccc(N3CCN(C)CC3)c(C(F)(F)F)c2)cc1Nc1nccc(-c2cccnc2)n1` [Example 5, 4-(4-Methyl-1-piperazinyl)-N-[4-methyl-3-[[4-(3-pyridinyl)-2-pyrimidinyl]amino]phenyl]-3-(trifluoromethyl)-benzamide], the IC50 in assay [1] fell in the range of 30 to 100 nM; in assay [2] it was 5 to 50 nM.
The corresponding values for `Cc1ccc(NC(=O)c2ccc(-n3ccnc3)c(C(F)(F)F)c2)cc1Nc1nccc(-c2cccnc2)n1` [Example 6, 4-(1H-Imidazol-1-yl)-N-[4-methyl-3-[[4-(3-pyridinyl)-2-pyrimidinyl]amino]phenyl]-3-(trifluoromethyl)-benzamide] are 10 to 50 nM and 5 to 20 nM.
The corresponding values for `Cc1ccc(NC(=O)c2ccc(-n3ccnc3C)c(C(F)(F)F)c2)cc1Nc1nccc(-c2cccnc2)n1` [Example 7, 4-(2-Methyl-1H-imidazol-1-yl)-N-[4-methyl-3-[[4-(3-pyridinyl)-2-pyrimidinyl]amino]phenyl]-3-(trifluoromethyl)-benzamide] are 10 to 50 nM and 5 to 20 nM.
The matching figures for `Cc1cn(-c2ccc(C(=O)Nc3ccc(C)c(Nc4nccc(-c5cccnc5)n4)c3)cc2C(F)(F)F)cn1` [Example 8, 4-(4-Methyl-1H-imidazol-1-yl)-N-[4-methyl-3-[[4-(3-pyridinyl)-2-pyrimidinyl]amino]phenyl]-3-(trifluoromethyl)-benzamide]: 10 to 50 nM and 5 to 20 nM.
As to `Cc1cn(-c2ccc(C(=O)Nc3ccc(C)c(Nc4nccc(-c5cccnc5)n4)c3)cc2C(F)(F)F)c(C)n1` [Example 9, 4-(2,4-Dimethyl-1H-imidazol-1-yl)-N-[4-methyl-3-[[4-(3-pyridinyl)-2-pyrimidinyl]amino]phenyl]-3-(trifluoromethyl)-benzamide], the figures for the IC50 in assay [1] and in assay [2] were 20 to 80 nM and 5 to 20 nM, respectively.
For the molecule `Cc1ccc(NC(=O)c2cc(-n3ccnc3)cc(C(F)(F)F)c2)cc1Nc1nccc(-c2cccnc2)n1` [Example 10, 3-(1H-Imidazol-1-yl)-N-[4-methyl-3-[[4-(3-pyridinyl)-2-pyrimidinyl]amino]phenyl]-5-(trifluoromethyl)-benzamide], the figures for the IC50 in assay [1] and in assay [2] were 10 to 50 nM and 5 to 20 nM, respectively.
Regarding `Cc1ccc(NC(=O)c2cc(-n3ccnc3C)cc(C(F)(F)F)c2)cc1Nc1nccc(-c2cccnc2)n1` [Example 11, 3-(2-Methyl-1H-imidazol-1-yl)-N-[4-methyl-3-[[4-(3-pyridinyl)-2-pyrimidinyl]amino]phenyl]-5-(trifluoromethyl)-benzamide], the IC50 in assay [1] was 10 to 50 nM; in assay [2], 5 to 20 nM.
The corresponding values for `Cc1cn(-c2cc(C(=O)Nc3ccc(C)c(Nc4nccc(-c5cccnc5)n4)c3)cc(C(F)(F)F)c2)cn1` [Example 12, 3-(4-Methyl-1H-imidazol-1-yl)-N-[4-methyl-3-[4-(3-pyridinyl)-2-pyrimidinyl]amino]phenyl-5-(trifluoromethyl)-benzamide] are 10 to 50 nM and 5 to 20 nM.
The corresponding values for `Cc1ccc(NC(=O)c2cc(N3CCOCC3)cc(C(F)(F)F)c2)cc1Nc1nccc(-c2cccnc2)n1` [Example 13, N-[4-Methyl-3-[[4-(3-pyridinyl)-2-pyrimidinyl]amino]phenyl]-3-(4-morpholinyl)-5-(trifluoromethyl)-benzamide] are 20 to 80 nM and 5 to 20 nM.
The matching figures for `Cc1ccc(NC(=O)c2cc(N3CCN(C)CC3)cc(C(F)(F)F)c2)cc1Nc1nccc(-c2cccnc2)n1` [Example 14, 3-(4-Methyl-1-piperazinyl)-N-[4-methyl-3-[[4-(3-pyridinyl)-2-pyrimidinyl]amino]phenyl]-5-(trifluoromethyl)-benzamide]: 30 to 180 nM and 5 to 20 nM.
Consider `Cc1ccc(NC(=O)c2ccc(N(C)CCN(C)C)c(C(F)(F)F)c2)cc1Nc1nccc(-c2cccnc2)n1` [Example 15, 4-[[2-(Dimethylamino)ethyl]methylamino]-N-[4-methyl-3-[[4-(3-pyridinyl)-2-Pyrimidinyl]amino]phenyl]-3-(trifluoromethyl)-benzamide], for which the IC50 in assay [1] lay in the range of 50 to 200 nM; in assay [2], 5 to 20 nM.
The corresponding values for `Cc1ccc(NC(=O)c2ccc(N(C)C3CCN(C)CC3)c(C(F)(F)F)c2)cc1Nc1nccc(-c2cccnc2)n1` [Example 16, 4-[Methyl-(1-methyl-4-piperidinyl)amino]-N-[4-methyl-3-[[4-(3-Pyridinyl)-2-pyrimidinyl]amino]phenyl]-3-(trifluoromethyl)-benzamide] are 50 to 200 nM and 5 to 20 nM.
As to `CCNc1cc(C(=O)Nc2ccc(C)c(Nc3nccc(-c4cccnc4)n3)c2)cc(C(F)(F)F)c1` [Example 17], the values for the IC50 in assay [1] and in assay [2] were 20 to 60 nM and 10 to 70 nM, respectively.
`CC(=O)Nc1cc(C(=O)Nc2ccc(C)c(Nc3nccc(-c4cccnc4)n3)c2)cc(C(F)(F)F)c1` [Example 18, 3-Acetylamino-N-[4-methyl-3-[[4-(3-pyridinyl)-2-pyrimidinyl]amino]phenyl]-5-(trifluoromethyl)-benzamide] returned an IC50 in assay [1] of 13 nM.

The values are drawn from US7655669B2, “Pyrimidineamide derivatives and the use thereof” (Novartis AG, priority 2002, dated 2010).
